# US20040254129A1, “Use of ethoxylated phytosterols and phytostanols” (priority 2001, published 2004)
# Like-named read-outs stand apart in the source and are kept apart here. Marks after values point to notes of the source that are not given here.
# Key:
# [1] = tested on: erythrocytes extracted from dog blood; experiment: Determination of the lysis of erythrocytes
# Experimental: (§1) Erythrocytes were extracted from dog blood by a centrifugation—resuspension procedure. The fresh blood was subjected to mild centrifugation at 2000×g for 10 mins. The excessive blood plasma was removed and the so-obtained sediment of erythrocytes was resuspended in normal saline (0.9% NaCl in water). This procedure was repeated twice. The final volume of the erythrocyte suspension was equal to the initial volume of the fresh blood. Surfactant solutions with varying concentration of the surfactant were prepared by dissolving and diluting appropriate amounts of surfactants in 0.9% (w/w) NaCl in water. 100 μl surfactant solution was added to 400 μl erythrocyte suspension. The samples were vigorously agitated for 5 seconds immediately after addition, followed by 20 mins incubation at 37° C. under gentle shaking. The samples were centrifuged for 6 mins at 3000 g and 5° C. The centrifugation separated the samples into sediments of intact erythrocytes and a supernatant. A small fraction of the supernatant was removed and analysed with respect to hemoglobin content. The hemoglobin was allowed to undergo a chemical reaction with H2O2, aminophenazon, and phenol. […] From this concentration, the initial concentration of hemoglobin was calculated. Each determination was carried out for triplicate samples.
# (§2) Negative control samples, i.e. samples for the determination of background lysis, were prepared by adding 100 μl normal saline to 400 μl erythrocyte suspension. These samples were treated and analysed in the same way as described above.
# (§3) Positive control samples, i.e. samples for the determination of total hemoglobin content, were prepared by diluting the erythrocyte suspension 500 times with distilled water. The dilution caused complete lysis of all erythrocytes, and the concentration of released hemoglobin could be determined as described above.
# (§4) The degree of lysis was calculated according to the following expression [formula]
# (§5) where % L is the degree of lysis in %, [Hb] the concentration of released hemoglobin in the mixture of erythrocytes and surfactant, [Hb]0 the concentration of released hemoglobin in the negative control (basal hemolysis), and [Hb]tot the total concentration of hemoglobin in the mixtures of erythrocytes and surfactant.
# (§6) The degree of lysis was determined as a function of the surfactant concentration in the mixture of erythrocytes and surfactant.
# (§7) The activity of each surfactant to cause lysis of erythrocytes is indicated by the position of the lysis curve in the diagram. For a surfactant with low activity, a high concentration is required to obtain a certain degree of lysis. Here, the activity is quantified by considering the concentration at which 10% lysis is obtained. The higher the concentration, the lower the activity.
# [2] = Solubilization of griseofulvin by surfactants (UV absorption spectrometry); assay type: physicochemical
# Experimental: For each of the surfactants, four samples with different surfactant concentrations were prepared. The surfactants were dissolved and diluted in pure and filtered water. Griseofulvin was added in excess and the samples were allowed to equilibrate for 4 hours at 45° C. followed by 20 hours at room temperature. The samples were thoroughly shaken during the whole equilibration time. The samples were subsequently centrifuged to remove undissolved griseofulvin. The concentration of dissolved griseofulvin was determined by UV absorption spectrometry. The absorbance was recorded at the wavelength for maximum absorption, λmax=295 nm.
# In line with the definition in Example 8, the solubilization capacity becomes [formula]
# [3] = Solubilization of felodipine by surfactants (14C scintillation detection); assay type: physicochemical; conditions: for solubility of felodipine on addition of the surfactant (in words): 0.9% (w/w) NaCl in water
# Experimental: Both ^14C-labelled and non-labelled felodipine were provided by AstraZeneca AB. In order to obtain a molecularly homogeneous mixture of labelled and non-labelled felodipine, both components were dissolved in chloroform. After a clear solution was obtained, the solvent was evaporated. […] The surfactants were dissolved and diluted in 0.9% (w/w) NaCl in water. The felodipine was added in excess and the samples were allowed to equilibrate for over 48 hours in room temperature under thorough shaking. The samples were filtered using 4 mm Durapore filters (0.45 μm, Millipore) to remove undissolved felodipine. […] From each sample 0.5 ml solution was withdrawn and mixed with 3.5 ml scintillation liquid. The concentration of dissolved felodipine was determined by means of scintillation detection using a Beckman LS6500 scintillation counter.
# The solubilization capacity of each surfactant with respect to felodipine was determined by considering the slope of the solubilization curves, α. The slope of each curve, α, describes the additional amount of felodipine that can be dissolved in a solution when a small amount of surfactant is added, which is also the definition of the solubilization capacity. [formula]
# The solubilization capacity was calculated by fitting a linear expression to the experimental data and extracting the slope, α.
# [4] = tested on: fresh blood taken from beagle dog (red blood cells); experiment: Determination of hemolysis in fresh blood; assay type: cell-based; conditions: for Hemolytic activity (concentration range at which 5% hemolysis is obtained): surfactant concentration in blood/surfactant mixture, read from hemolysis curves
# Experimental: 100 μl surfactant solution was added to 400 μl fresh blood taken from beagle dog. The blood and surfactant mixture was gently agitated for 2-3 seconds immediately after addition, followed by 10 mins incubation at 37° C. under gentle shaking. […] During centrifugation the sample separated into a sediment of red blood cells and a supernatant. […] Each determination was carried out for triplicate samples.
# After 30 minutes 400 μl of the so-obtained solution was mixed with 100 μl normal saline. From the resulting solution, a small fraction was removed and analysed with respect to hemoglobin content with a Cobas Bio spectrophotometer.
# The degree of hemolysis was calculated according to the following expression [formula]
# The position of the hemolysis curve along the concentration axis in such a diagram determines the hemolytic activity. The more hemolytic a surfactant is, the lower concentration is required to obtain a certain degree of hemolysis. In order to quantify the hemolytic activity, the concentration was considered at which 5% hemolysis was obtained. The higher the concentration, the lower the activity. The procedure was repeated at least once for all surfactants.
# [5] = no surfactant; cited from earlier work
# [6] = tested on: erythrocytes extracted from dog blood
# Experimental: as §1, §2, §3, §4, §5, §6, §7
# [7] = surfactant 0.00 mM (no surfactant) in 0.9% (w/w) NaCl
molecule,measurement,setting,value
"OC[C@H]1O[C@H](O[C@H]2[C@H](O)[C@@H](O)[C@H](OCCCCCCC3CCCCC3)O[C@@H]2CO)[C@H](O)[C@@H](O)[C@@H]1O [Cyclohexyl-hexyl maltoside, cyclohexyl-n-hexyl-β-D-maltopyranoside]","degree of lysis of erythrocytes, % L",[1]; surfactant 0.20 mM in mixture of erythrocytes and surfactant,0.31%
same,"degree of lysis of erythrocytes, % L",[1]; surfactant 0.40 mM in mixture of erythrocytes and surfactant,1.96%
same,"degree of lysis of erythrocytes, % L",[1]; surfactant 0.80 mM in mixture of erythrocytes and surfactant,7.60%
same,"degree of lysis of erythrocytes, % L",[1]; surfactant 1.00 mM in mixture of erythrocytes and surfactant,9.67%
same,"degree of lysis of erythrocytes, % L",[1]; surfactant 2.01 mM in mixture of erythrocytes and surfactant,15.11%
same,"degree of lysis of erythrocytes, % L",[1]; surfactant 2.50 mM in mixture of erythrocytes and surfactant,20.28%
same,Activity of lysis (concentration at which 10% lysis is obtained),"[1]; surfactant concentration in mixture of erythrocytes and surfactant, read from lysis curves",1.1 mM
same,Griseofulvin concentration (solubility of griseofulvin),[2]; surfactant 2.804 mM in water,23.4 µM
same,Griseofulvin concentration (solubility of griseofulvin),[2]; surfactant 5.608 mM in water,51 µM
same,Griseofulvin concentration (solubility of griseofulvin),[2]; surfactant 14.019 mM in water,132.9 µM
same,Griseofulvin concentration (solubility of griseofulvin),[2]; surfactant 28.038 mM in water,272 µM
polyoxyethylene(23) lauryl ether [Brij ® 35],solubility of felodipine on addition of the surfactant (in words),[3],increased
same,Felodipine concentration (solubility of felodipine),[3]; [7],<0.07 ^† mM
same,Felodipine concentration (solubility of felodipine),[3]; surfactant 10.42 mM in 0.9% (w/w) NaCl,1.7070 mM
same,Felodipine concentration (solubility of felodipine),[3]; surfactant 20.84 mM in 0.9% (w/w) NaCl,3.4064 mM
same,Felodipine concentration (solubility of felodipine),[3]; surfactant 31.26 mM in 0.9% (w/w) NaCl,5.1085 mM
same,Felodipine concentration (solubility of felodipine),[3]; surfactant 41.680 mM in 0.9% (w/w) NaCl,6.8927 mM
same,"degree of hemolysis, % H",[4]; surfactant 8.40 mM in blood/surfactant mixture,0.87%
same,"degree of hemolysis, % H",[4]; surfactant 16.80 mM in blood/surfactant mixture,2.37%
same,"degree of hemolysis, % H",[4]; surfactant 25.20 mM in blood/surfactant mixture,5.04%
same,"degree of hemolysis, % H",[4]; surfactant 33.60 mM in blood/surfactant mixture,7.44%
same,"degree of hemolysis, % H",[4]; surfactant 42.00 mM in blood/surfactant mixture,10.85%
same,Hemolytic activity (concentration range at which 5% hemolysis is obtained),[4],25 mM
"CCCCCCCCO[C@@H]1O[C@H](CO)[C@@H](O[C@H]2O[C@H](CO)[C@@H](O)[C@H](O)[C@H]2O)[C@H](O)[C@H]1O [Octyl maltoside, n-octyl-β-D-maltopyranoside]",Griseofulvin concentration (solubility of griseofulvin),[2]; surfactant 117.6 mM in water,323.2 µM
same,Griseofulvin concentration (solubility of griseofulvin),[2]; surfactant 235.1 mM in water,442.5 µM
same,Griseofulvin concentration (solubility of griseofulvin),[2]; surfactant 587.8 mM in water,445.1 µM
same,Griseofulvin concentration (solubility of griseofulvin),[2]; surfactant 1175.7 mM in water,432 µM
"COC1=CC(=O)C[C@@H](C)[C@]12Oc1c(Cl)c(OC)cc(OC)c1C2=O [griseofulvin, Griseofulvin]",solubility of griseofulvin in pure water,[5],23 µM
"CCCCCCCCCCCCO[C@@H]1O[C@H](CO)[C@@H](O[C@H]2O[C@H](CO)[C@@H](O)[C@H](O)[C@H]2O)[C@H](O)[C@H]1O [Dodecyl maltoside, n-dodecyl-β-D-maltopyranoside]",Griseofulvin concentration (solubility of griseofulvin),[2]; surfactant 0.811 mM in water,10.1 µM
same,Griseofulvin concentration (solubility of griseofulvin),[2]; surfactant 1.622 mM in water,22.1 µM
same,Griseofulvin concentration (solubility of griseofulvin),[2]; surfactant 4.054 mM in water,58.2 µM
same,Griseofulvin concentration (solubility of griseofulvin),[2]; surfactant 8.108 mM in water,115.7 µM
same,Activity of lysis (concentration at which 10% lysis is obtained),[6],0.8 mM
same,"degree of hemolysis, % H",[4]; surfactant 0.098 mM in blood/surfactant mixture,0.456%
same,"degree of hemolysis, % H",[4]; surfactant 0.196 mM in blood/surfactant mixture,1.047%
same,"degree of hemolysis, % H",[4]; surfactant 0.392 mM in blood/surfactant mixture,2.987%
same,"degree of hemolysis, % H",[4]; surfactant 0.588 mM in blood/surfactant mixture,4.772%
same,"degree of hemolysis, % H",[4]; surfactant 0.784 mM in blood/surfactant mixture,7.157%
same,"degree of hemolysis, % H",[4]; surfactant 0.980 mM in blood/surfactant mixture,7.563%
same,"degree of hemolysis, % H",[4]; surfactant 1.177 mM in blood/surfactant mixture,11.208%
same,Hemolytic activity (concentration range at which 5% hemolysis is obtained),[4],0.6 mM
polyoxyethylene(20) stearyl ether [Brij ® 78],solubility of felodipine on addition of the surfactant (in words),[3],increased
same,Felodipine concentration (solubility of felodipine),[3]; [7],<0.07 ^† mM
same,Felodipine concentration (solubility of felodipine),[3]; surfactant 10.89 mM in 0.9% (w/w) NaCl,2.64 mM
same,Felodipine concentration (solubility of felodipine),[3]; surfactant 21.79 mM in 0.9% (w/w) NaCl,5.22 mM
same,Felodipine concentration (solubility of felodipine),[3]; surfactant 32.68 mM in 0.9% (w/w) NaCl,7.76 mM
same,Felodipine concentration (solubility of felodipine),[3]; surfactant 43.57 mM in 0.9% (w/w) NaCl,10.25 mM
same,"degree of hemolysis, % H",[4]; surfactant 3.48 mM in blood/surfactant mixture,1.09%
same,"degree of hemolysis, % H",[4]; surfactant 3.65 mM in blood/surfactant mixture,1.97%
same,"degree of hemolysis, % H",[4]; surfactant 3.83 mM in blood/surfactant mixture,2.47%
same,"degree of hemolysis, % H",[4]; surfactant 4.00 mM in blood/surfactant mixture,3.72%
same,"degree of hemolysis, % H",[4]; surfactant 4.17 mM in blood/surfactant mixture,6.14%
same,"degree of hemolysis, % H",[4]; surfactant 4.35 mM in blood/surfactant mixture,9.21%
same,Hemolytic activity (concentration range at which 5% hemolysis is obtained),[4],4 mM
